Where two headings read alike, the source gives them in different places.
Columns and labels:
[1] = target: Class C(AmpC) beta-lactamase (UniProt P00811); test: beta-lactamase inhibition, spectrophotometric with nitrocefin; assay type: biochemical; settings: for IC50: 10-minute preincubation of enzyme with inhibitor at 25° C., nitrocefin substrate; for inhibition of class C(AmpC) enzymes, in words: summary of Table I
[2] = target: Class A(TEM-1) beta-lactamase (Escherichia coli, UniProt P62593); test: as above; assay type: biochemical; settings: for IC50: 10-minute preincubation of enzyme with inhibitor at 25° C., nitrocefin substrate; for inhibition of class A(TEM-1) enzymes, in words: summary of Table I
E. coli 300 + (AmpC) = test: microbial assay, MIC in broth, antibiotic with inhibitor 1:1; assay type: cell-based; settings: for MIC: Escherichia coli, Table II, combinations 1:1 ratio antibiotic to inhibitor
Method: (§1) Representative Example 9 was tested in a microbial assay in combination with the penicillin antibiotic Piperacillin. In these tests, minimum inhibitory concentration(MIC) are determined in broth using serial two-fold dilutions with a 1:1 ratio of Piperacillin to inhibitor(N. A. Kuck; N. V. Jacobs; P. J. Peterson; W. J. Weiss; and R. T. Testa, in “Antimicrobial Agents and Chemotherapy”, Vol. 33, 1989, pages 1964-1969).

E. coli GC 6265 (TEM-1) = test: as above; assay type: cell-based; settings: for MIC: Escherichia coli, Table II, combinations 1:1 ratio antibiotic to inhibitor
Method: as §1

[3] = target: Class B(Imi-1) beta-lactamase (Enterobacter cloacae, UniProt Q46991); test: beta-lactamase inhibition, spectrophotometric with nitrocefin; assay type: biochemical; settings: 10-minute preincubation of enzyme with inhibitor at 25° C., nitrocefin substrate
S. marcescens (AmpC) = test: microbial assay, MIC in broth, antibiotic with inhibitor 1:1; assay type: cell-based; settings: Serratia marcescens, serial two-fold dilutions
Method: as §1

E. coli + (AmpC) = test: as above; assay type: cell-based; settings: Escherichia coli, serial two-fold dilutions
Method: as §1

[4] = test system: P. aeroginosa (AmpC derepressed); test: as above; assay type: cell-based; settings: serial two-fold dilutions
Method: as §1

E. coli + (TEM-1) = test: as above; assay type: cell-based; settings: Table III, serial two-fold dilutions, combinations 1:1 ratio Piperacillin to inhibitor
Method: as §1

[5] = summary of Table II, combined with piperacillin or cefotaxime
[6] = broth, serial two-fold dilutions
[7] = Table II, combinations 1:1 ratio antibiotic to inhibitor
[8] = Table II, combinations 1:1 ratio antibiotic to inhibitor, read-out: MIC P. aeroginosa (AmpC derepressed)
[9] = Table III, broth, serial two-fold dilutions, combinations 1:1 ratio Piperacillin to inhibitor
[10] = Table III, combinations 1:1 ratio Piperacillin to inhibitor

Class A(TEM-1) beta-lactamase, sequence (P62593 24-286 limits assumed): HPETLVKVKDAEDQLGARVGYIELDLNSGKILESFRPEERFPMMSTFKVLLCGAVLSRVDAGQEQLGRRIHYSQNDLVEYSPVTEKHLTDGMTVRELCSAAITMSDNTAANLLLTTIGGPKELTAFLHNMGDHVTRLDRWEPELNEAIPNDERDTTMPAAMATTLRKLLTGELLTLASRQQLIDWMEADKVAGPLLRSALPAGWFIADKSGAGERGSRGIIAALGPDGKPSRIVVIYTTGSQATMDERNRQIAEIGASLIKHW
Class B(Imi-1) beta-lactamase, sequence (Q46991 entry or part of it): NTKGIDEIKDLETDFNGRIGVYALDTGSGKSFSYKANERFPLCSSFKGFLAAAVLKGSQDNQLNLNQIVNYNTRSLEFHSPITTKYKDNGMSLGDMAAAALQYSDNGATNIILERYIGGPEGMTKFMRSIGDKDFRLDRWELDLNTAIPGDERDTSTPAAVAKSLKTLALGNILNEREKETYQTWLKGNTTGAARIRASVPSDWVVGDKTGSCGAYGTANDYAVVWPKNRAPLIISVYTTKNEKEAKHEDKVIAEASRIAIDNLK

`CC1(C)C(C(=O)O)N2C(=O)C3(CC3OC3CCCCC3)C2S1(=O)=O` (single isomer, unassigned) [Example 13] was tested. Which IC50 [1] did it give?
The IC50 was 37 nM.

And the “inhibition of class C(AmpC) enzymes, in words” value [1]?
The value was “very potent inhibitors”.

And the IC50 ([2]; IC50 Class A(TEM-1))?
The IC50 was 510 nM.

And the “inhibition of class A(TEM-1) enzymes, in words” value [2]?
The value was “potent inhibitors”.

Which IC50 [1] does the source give for `CC1(C)[C@H](C(=O)O)N2C(=O)C[C@H]2S1(=O)=O` [Sulbactam, reference compound] here?
The IC50 was 65900 nM.

For `CC1(C)C(C(=O)O)N2C(=O)C3(CC3OC3CCCCC3)C2S1(=O)=O` (single isomer, unassigned) [Example 12], which IC50 [1] is on record?
The IC50 was 32000 nM.

What about the IC50 ([2]; IC50 Class A(TEM-1)) of the same molecule?
Its IC50 is 1700 nM.

Which IC50 [1] does the source give for `CC(C)(C)[Si](C)(C)OC1C[C@@]12C(=O)N1[C@@H](C(=O)O)C(C)(C)S(=O)(=O)[C@@H]12` (single isomer, unassigned) [Example 8] here?
Its IC50 is 1900 nM.

What about the IC50 ([2]; IC50 Class A(TEM-1)) of the same molecule?
The IC50 was 17000 nM.

For `CC(C)(C)[Si](C)(C)OC1CC12C(=O)N1[C@@H](C(=O)O)C(C)(C)S(=O)(=O)[C@@H]12` (single isomer, unassigned) [Example 10], which IC50 [1] is on record?
The IC50 was 343 nM.

What about the “inhibition of class C(AmpC) enzymes, in words” value [1] of the same molecule?
The value was “very potent inhibitors”.

And the IC50 ([2]; IC50 Class A(TEM-1))?
The IC50 was 12000 nM.

`CC1(C)C(C(=O)O)N2C(=O)C3(CC3OC3CCCCC3)C2S1(=O)=O` (single isomer, unassigned) [Example 14] was tested. Which IC50 [1] did it give?
Its IC50 is 3160 nM.

And the IC50 ([2]; IC50 Class A(TEM-1))?
Its IC50 is 130000 nM.

How did the IC50 [1] turn out when `CC(C)(C)[Si](C)(C)O[C@H]1C[C@]12C(=O)N1[C@@H](C(=O)[O-])C(C)(C)S(=O)(=O)[C@@H]12.[Na+]` [Example 9, (1R,2S,5R)-2-[(tert-Butyldimethylsilyl)oxy]-3,3-dimethyl-7-oxospiro[cyclopropane-1,6-[4]thia[1]azabicyclo[3.2.0]-heptane]-2-carboxylic acid, Sodium Salt, 4,4-dioxide] was run?
The IC50 was 21 nM.

What about the “inhibition of class C(AmpC) enzymes, in words” value [1] of the same molecule?
Its value is “very potent inhibitors”.

What about the IC50 ([2]; read-out: IC50 Class A(TEM-1)) of the same molecule?
Its IC50 is 650 nM.

And the “inhibition of class A(TEM-1) enzymes, in words” value [2]?
Its value is “potent inhibitors”.

And the “activity as a beta-lactamase inhibitor with E.coli 300+(AmpC), in words” value (E. coli 300 + (AmpC); [5])?
Its value is “very potent activity”.

And the “activity as a beta-lactamase inhibitor with E.coli GC6265 (TEM-1), in words” value (E. coli GC 6265 (TEM-1); [5])?
Its value is “very potent activity”.

What about the IC50 [3] of the same molecule?
Its IC50 is 12000 nM.

`CO/N=C(\C(=O)N[C@@H]1C(=O)N2C(C(=O)O)=C(COC(C)=O)CS[C@H]12)c1csc(N)n1` [Cefotaxime, cefotaxime] was tested. Which MIC (E. coli 300 + (AmpC); [6]) did it give?
The MIC was 16 µg/mL.

What about the MIC (S. marcescens (AmpC); [7]) of the same molecule?
Its MIC is 8 µg/mL.

What about the MIC (E. coli + (AmpC); [7]) of the same molecule?
The MIC was > 64 µg/mL.

And the MIC (E. coli GC 6265 (TEM-1); [6])?
The MIC was 64 µg/mL.

And the MIC [4, 8]?
Its MIC is > 64 µg/mL.

With `CCN1CCN(C(=O)N[C@@H](C(=O)N[C@@H]2C(=O)N3[C@@H]2SC(C)(C)[C@@H]3C(=O)O)c2ccccc2)C(=O)C1=O` [Piperacillin] as the molecule, how does the MIC (E. coli 300 + (AmpC); [6]) read?
The MIC was 32 µg/mL.

What about the “MIC E. coli 300 + (AmpC)” value (E. coli 300 + (AmpC); [9]) of the same molecule?
Its value is 32 µg/mL.

And the “MIC E. coli + (TEM-1)” value (E. coli + (TEM-1))?
Its value is >64 µg/mL.

And the MIC (S. marcescens (AmpC); [7])?
The MIC was 32 µg/mL.

What about the MIC (S. marcescens (AmpC); [10]) of the same molecule?
Its MIC is 64 µg/mL.

What about the MIC (E. coli + (AmpC); [7]) of the same molecule?
Its MIC is > 64 µg/mL.

And the MIC (E. coli + (AmpC); [10])?
The MIC was 32 µg/mL.

And the MIC (E. coli GC 6265 (TEM-1); [6])?
The MIC was > 64 µg/mL.

What about the “MIC E. coli GC 6265 (TEM-1)” value (E. coli GC 6265 (TEM-1); [9]) of the same molecule?
Its value is >64 µg/mL.

What about the MIC [4, 8] of the same molecule?
Its MIC is > 64 µg/mL.

What about the MIC ([4]; Table III, combinations 1:1 ratio Piperacillin to inhibitor, read-out: MIC P. aeroginosa) of the same molecule?
Its MIC is > 64 µg/mL.

From patent US6489316B2, “6-(spirocyclopropyl) penicillanic acid 4, 4-dioxides” (priority 2000, dated 2002)
